Usually IC50 stands for the concentration that inhibits the measured activity by half.

This note sets out measurements from ChEMBL document CHEMBL5576135, “Discovery of Indolo[3,2-c]isoquinoline Derivatives as Novel Top1/2 Dual Inhibitors with Orally Efficacious Antitumor Activity and Low Toxicity” (J Med Chem, 2024).

Common to all, as to assay type: functional
One test has as its system HCT-116. Kind of test: Antiproliferative activity against human HCT-116 cells assessed as inhibition of cell growth incubated for 96 hrs by MTT based ELISA. As to conditions: HCT-116, 96 h.
A further test has as its system PC-3. Kind of test: Antiproliferative activity against human PC-3 cells assessed as inhibition of cell growth incubated for 96 hrs by MTT based ELISA. Particulars: PC-3, 96 h.
Another test deals with NCI-H2228. Kind of test: Antiproliferative activity against human NCI-H2228 cells assessed as inhibition of cell growth incubated for 96 hrs by MTT based ELISA. Particulars: NCI-H2228, 96 h.
A further test concerns MCF7. Kind of test: Antiproliferative activity against human MCF7 cells assessed as inhibition of cell growth incubated for 96 hrs by MTT based ELISA. As to conditions: MCF7, 96 h. Background: An ELISA detects its analyte on a solid surface through an enzyme-linked reagent.
The subject of a further test is MDA-MB-231. Kind of test: Antiproliferative activity against human MDA-MB-231 cells assessed as inhibition of cell growth incubated for 96 hrs by MTT based ELISA. Particulars: MDA-MB-231, 96 h.
Another test has as its system Huh-7. Kind of test: Antiproliferative activity against human Huh-7 cells assessed as inhibition of cell growth incubated for 96 hrs by MTT based ELISA. As to conditions: Huh-7, 96 h.

Turning to `COc1ccc2c(c1)c1nc(Cl)c3ccccc3c1n2CCCN1CC[C@@H](O)C1`, the IC50 in the test with HCT-116, in the test on PC-3, in the test on NCI-H2228, in the test with MCF7, with MDA-MB-231 and in the test with Huh-7 was > 10 µM each time.

On to `COc1ccc2c(c1)c1nc(Cl)c3ccccc3c1n2CCCn1c(=O)c(F)cn([C@@H]2O[C@H](CO)[C@@H](O)[C@H]2O)c1=O`, for which the IC50 in the test with HCT-116, with PC-3, with NCI-H2228, in the test on MCF7, in the test on MDA-MB-231 and with Huh-7 was > 10 µM each time.

Take `CN(C)CCCn1c2ccccc2c2[nH]c(=O)c3ccccc3c21`: the IC50 in the test with HCT-116 is 4.05 µM; in the test with PC-3 it was 4.38 µM; in the test on NCI-H2228, 7.03 µM; in the test with MCF7, 6.84 µM; in the test on MDA-MB-231, 5.9 µM; in the test on Huh-7, > 10 µM.

As to `COc1ccc2c(c1)c1nc(Cl)c3ccccc3c1n2CCCN(C)C`, the IC50 was 0.82 µM with HCT-116; 1.22 µM in the test with PC-3; 1.28 µM in the test on NCI-H2228; 1.64 µM in the test with MCF7; 1.2 µM in the test with MDA-MB-231; 1.77 µM with Huh-7.

Take `COc1ccc2c(c1)c1nc(Cl)c3ccccc3c1n2CCCN1CCC[C@@H]1CO`: the IC50 with HCT-116, in the test on PC-3, with NCI-H2228, with MCF7, in the test with MDA-MB-231 and in the test with Huh-7 was > 10 µM throughout.

Turning to `COc1ccc2c(c1)c1nc(Cl)c3ccccc3c1n2CCCN1CCCC(O)C1` (stereo unspecified), the IC50 in the test on HCT-116 was 3.68 µM; in the test with PC-3, 3.26 µM; with NCI-H2228 it was 3.1 µM; in the test on MCF7, 3.61 µM; with MDA-MB-231, 5.04 µM; in the test with Huh-7, 4.57 µM.

Take `COc1ccc2c(c1)c1nc(Cl)c3ccccc3c1n2CCCn1c(=O)[nH]cc(F)c1=O`: the IC50 with HCT-116, in the test on PC-3, with NCI-H2228, in the test with MCF7, in the test on MDA-MB-231 and with Huh-7 was > 10 µM each time.

For `COc1ccc2c(c1)c1nc(Cl)c3ccccc3c1n2CCCNc1ccn([C@@H]2O[C@H](CO)[C@@H](O)[C@@H]2O)c(=O)n1`, the IC50 in the test on HCT-116, in the test with PC-3, in the test with NCI-H2228, in the test on MCF7, in the test on MDA-MB-231 and in the test with Huh-7 was > 10 µM throughout.

Consider `COc1ccc2c(c1)c1nc(Cl)c3ccccc3c1n2CCCN1CCC(CO)CC1`, for which the IC50 with HCT-116, with PC-3, in the test on NCI-H2228, in the test with MCF7, with MDA-MB-231 and with Huh-7 was > 10 µM each time.

Turning to `COc1ccc2c(c1)c1nc(Cl)c3ccccc3c1n2CCCNc1ccn([C@H]2C[C@H](O)[C@@H](CO)O2)c(=O)n1`, the IC50 in the test on HCT-116, with PC-3, in the test on NCI-H2228, in the test with MCF7, in the test with MDA-MB-231 and in the test on Huh-7 was > 10 µM in each case.

For the compound `COc1ccc2c(c1)c1ncc3ccccc3c1n2CCCN(C)C`, the IC50 with HCT-116 is 0.62 µM; with PC-3, 1.01 µM; in the test with NCI-H2228, 1.05 µM; in the test with MCF7, 1.45 µM; in the test with MDA-MB-231, 1.09 µM; with Huh-7, 1.5 µM.

With `COc1ccc2c(c1)c1nc(Cl)c3ccccc3c1n2CCCN1CCC[C@@H](O)C1`, the IC50 with HCT-116, in the test on PC-3, in the test with NCI-H2228, with MCF7, with MDA-MB-231 and in the test on Huh-7 was > 10 µM throughout.

As for `CCOc1ccc2c(c1)c1ncc3ccccc3c1n2CCCC(=O)NO`, the 50% inhibitory concentration (IC50) in the test with HCT-116 came to 1.38 µM; in the test with PC-3 it was 1.55 µM; with NCI-H2228, 3.06 µM; in the test with MCF7, 0.97 µM; with MDA-MB-231, 0.8 µM; in the test on Huh-7, 3.41 µM.

As to `COc1ccc2c3nc(Cl)c4ccccc4c3n(CCCN(C)C)c2c1`, the IC50 with HCT-116 turned out to be 0.96 µM; in the test with PC-3, 1.65 µM; in the test with NCI-H2228, 1.5 µM; with MCF7 it was 1.83 µM; in the test with MDA-MB-231, 1.36 µM; with Huh-7 it was 2.49 µM.

On to `O=C(CCCn1c2ccc(OC(F)F)cc2c2nc(Cl)c3ccccc3c21)NO`, for which the IC50 was found to be 2.5 µM in the test with HCT-116; 4.11 µM with PC-3; 5.31 µM in the test on NCI-H2228; 4.35 µM in the test on MCF7; 3.69 µM in the test with MDA-MB-231; 4.13 µM with Huh-7.

As to `O=C(CCCn1c2ccc(OC(F)F)cc2c2ncc3ccccc3c21)NO`, the IC50 is 4.07 µM in the test on HCT-116; 4.3 µM in the test on PC-3; 3.74 µM with NCI-H2228; 5.71 µM with MCF7; 2.38 µM in the test with MDA-MB-231; 3.37 µM in the test on Huh-7.

In the case of `CCOc1ccc2c(c1)c1nc(Cl)c3ccccc3c1n2CCCC(=O)NO`, the IC50 worked out at 1.8 µM with HCT-116; 2.58 µM in the test on PC-3; 4.66 µM in the test on NCI-H2228; 3.73 µM in the test on MCF7; 1.92 µM with MDA-MB-231; 3.92 µM in the test on Huh-7.

Consider `COc1ccc2c(c1)c1nc(Cl)c3ccccc3c1n2CCCn1cc(C)nc1C`, for which the IC50 in the test on HCT-116, with PC-3, in the test with NCI-H2228, in the test on MCF7, in the test on MDA-MB-231 and in the test with Huh-7 was > 10 µM each time.

For the compound `CC(C)Oc1ccc2c(c1)c1ncc3ccccc3c1n2CCCC(=O)NO`, the IC50 with HCT-116 stood at 2.14 µM; in the test on PC-3, 2.57 µM; in the test on NCI-H2228 it was 4.86 µM; in the test on MCF7 it was 4.56 µM; with MDA-MB-231, 1.78 µM; with Huh-7 it was 4.43 µM.

With `COc1ccc2c(c1)c1nc(Cl)c3ccccc3c1n2CCCN1CCOCC1`, the IC50 with HCT-116, in the test on PC-3, with NCI-H2228, in the test on MCF7, with MDA-MB-231 and in the test with Huh-7 was > 10 µM throughout.

With `O=C(CCCn1c2ccccc2c2nc(Cl)c3ccccc3c21)NO`, the IC50 in the test with HCT-116 was 2.87 µM; in the test with PC-3, 3.14 µM; in the test on NCI-H2228, 4.28 µM; with MCF7 it was 3.87 µM; with MDA-MB-231, 2.98 µM; in the test with Huh-7, 5.76 µM.

With `COc1ccc2c(c1)c1nc(Cl)c3ccccc3c1n2CCCNc1nc(=O)n([C@@H]2O[C@H](CO)[C@@H](O)[C@H]2O)cc1F`, the IC50 in the test on HCT-116, with PC-3, with NCI-H2228, with MCF7, with MDA-MB-231 and in the test with Huh-7 was > 10 µM in each case.

As to `COc1ccc2c(c1)c1[nH]c(=O)c3ccccc3c1n2CCCN(C)C`, the IC50 in the test with HCT-116 was determined as 0.55 µM; in the test with PC-3, 1.32 µM; in the test with NCI-H2228 it was 2.03 µM; in the test with MCF7, 1.41 µM; in the test with MDA-MB-231, 1.92 µM; in the test with Huh-7, 2.55 µM.

As for `COc1ccc2c(c1)c1nc(Cl)c3ccccc3c1n2CCCn1cnc(C)c1`, the IC50 in the test on HCT-116, with PC-3, in the test on NCI-H2228, in the test on MCF7, in the test with MDA-MB-231 and with Huh-7 was > 10 µM each time.

On to `COc1ccc2c(c1)c1nc(Cl)c3ccccc3c1n2CCCN1CCC(N(C)C)CC1`, for which the IC50 in the test on HCT-116 was found to be 2.55 µM; in the test with PC-3, 2.7 µM; in the test with NCI-H2228, 2.73 µM; in the test on MCF7, 2.96 µM; in the test with MDA-MB-231, 4.1 µM; in the test on Huh-7, 4.36 µM.

Regarding `COc1ccc2c3nc(Cl)c4ccccc4c3n(CCCC(=O)NO)c2c1`, the IC50 with HCT-116 is 2.7 µM; with PC-3 it was 3.7 µM; with NCI-H2228, 4.55 µM; in the test on MCF7, 4.6 µM; with MDA-MB-231 it was 3.06 µM; in the test on Huh-7 it was > 10 µM.

For `CC(C)Oc1ccc2c(c1)c1[nH]c(=O)c3ccccc3c1n2CCCN(C)C`, the IC50 in the test on HCT-116 was 2.26 µM; in the test on PC-3 it was 4.91 µM; in the test with NCI-H2228 it was 2.56 µM; with MCF7 it was > 10 µM; in the test with MDA-MB-231 it was 5.6 µM; in the test with Huh-7 it was 6.74 µM.

As for `CN(C)CCCn1c2ccccc2c2nc(Cl)c3ccccc3c21`, the IC50 with HCT-116 came out at 1.33 µM; with PC-3 it was 2.67 µM; in the test with NCI-H2228 it was 1.51 µM; in the test on MCF7, 2.75 µM; in the test on MDA-MB-231 it was 1.95 µM; with Huh-7 it was 2.99 µM.

Regarding `COc1ccc2c(c1)c1nc(Cl)c3ccccc3c1n2CCCN1CCN(C(C)C)CC1`, the IC50 in the test on HCT-116 came out at 1.79 µM; with PC-3, 1.12 µM; with NCI-H2228, 2.36 µM; in the test with MCF7 it was 1.76 µM; in the test on MDA-MB-231, 2.52 µM; in the test on Huh-7, 2.26 µM.

Take `COc1ccc2c(c1)c1nc(Cl)c3ccccc3c1n2CCCN1C(=O)CC(C)(C)CC1=O`: the IC50 with HCT-116, with PC-3, with NCI-H2228, with MCF7, in the test on MDA-MB-231 and in the test on Huh-7 was > 10 µM throughout.

With `COc1ccc2c(c1)c1nc(Cl)c3ccccc3c1n2CCCN1CCN(C)CC1`, the IC50 in the test with HCT-116 worked out at 1.65 µM; in the test on PC-3 it was 0.82 µM; with NCI-H2228 it was 2.41 µM; with MCF7, 1.36 µM; with MDA-MB-231, 2.24 µM; in the test on Huh-7 it was 3.31 µM.
